Measurements reported in PMC10778824, “New Chalcone Derivatives Containing 2,4-Dichlorobenzenesulfonamide Moiety with Anticancer and Antioxidant Properties” (International Journal of Molecular Sciences, 2023).
≈ marks a conversion by molar mass, not a printed value.

Columns and labels:
[1] = system: cervical cancer HeLa; experiment: MTT assay, HeLa cells; format: cell-based, human
Protocol: The human gastric adenocarcinoma AGS, cervical cancer HeLa, and acute promyelocytic leukemia HL-60 cells were obtained from the American Type Culture Collection (ATCC, Manassas, VA, USA). Human neonatal fibroblasts were obtained from LGC Standards (Luckenwalde, Germany). The HeLa and AGS lines were cultured in Dulbecco’s modified Eagle’s medium (DMEM) and DMEM/F12 medium, respectively. The HL-60 line was maintained in RPMI-1640 medium. Fibroblasts were cultured in Fibroblast Growth Medium with Supplement Mix. All the media were supplemented with 100 units/mL of penicillin, 100 µg/mL of streptomycin, and 10% (v/v) fetal bovine serum (FBS) (Merck Millipore, Burlington, MA, USA). The cells were incubated at 37 °C and 5% CO2.
To estimate the cytotoxic effect of the five compounds (4–8), MTT (3-(4,5-dimethylthiazol-2-yl)-2,5-diphenyltetrazolium bromide) assay was used. Oxaliplatin was used as a positive control in this test. All the cell lines were seeded in 96-well plates at a density of 5 × 10^3 cells/well and treated for 24 h with the compounds at concentrations of 0.5–40 µg/mL. Oxaliplatin was tested in the range of 20–400 µg/mL (50–1000 µM). After treatment, the cells were incubated with MTT (0.5 mg/mL; Merck Millipore, Burlington, MA, USA) for 3 h. Then, DMSO was used to dissolve formazan crystals, and the absorbance of the formazan solution was measured with a plate reader (Epoch, BioTek Instruments, Santa Clara, CA, USA). All the results (±standard deviation (SD)) were obtained from six repetitions in at least two independent experiments. The data are expressed as IC50 values (µg/mL).

[2] = system: caspase-9; experiment: Caspase-Glo 9 activity assay in AGS cells; format: cell-based, human; conditions: 24 h, relative to DMSO control
Protocol: The AGS cells were seeded in a 96-well plate (5 × 10^3 cells/well) and treated with compound 5 at concentrations of 1, 5, 7, and 10 µg/mL for 24 h; oxaliplatin at the concentration of 20 µg/mL; and DMSO (1%, v/v). The cells were then treated with reagents from Caspase-Glo 8 Assay or Caspase-Glo 9 Assay (Promega, Madison, WI, USA) and measured with the luminometer Glomax Multi + Detection System (Promega, Madison, WI, USA). The experiments were performed in two independent repeats in three repetitions.

[3] = DPPH radical scavenging assay; conditions: concentration of 800 µg/mL
Protocol: The DPPH radical scavenging assay of samples (ligands or complexes) was performed with ascorbic acid as a standard. Different concentrations of chalcone derivatives, dissolved in DMSO, were mixed with the same amount of 0.06 mM DPPH methanolic solution and incubated at room temperature in the dark for 30 min. The absorbance was analyzed at λ = 517 nm using a 96-well microplate reader (Epoch, BioTek System, Winooski, VT, USA). The control was composed of DPPH and DMSO. DPPH inhibition was calculated according to the following Formula (2):DPPH Inhibition (%) = [(Acontrol − Asample)/Acontrol] × 100%(2)

[4] = ABTS radical scavenging assay; conditions: concentration of 800 µg/mL
Protocol: The ABTS radical scavenging assay of chalcone derivatives was performed with ascorbic acid as a standard. Different concentrations of samples, dissolved in DMSO, were mixed with 170 μL of ABTS solution (2 mM ABTS diammonium salt and 3.5 mM potassium persulfate), and water was added to a final volume of 300 μL. ABTS solution with DMSO was used as a control. […] ABTS inhibition was calculated according to the following Formula (3):ABTS Inhibition (%) = [(Acontrol − Asample)/Acontrol] × 100%(3)

[5] = system: Bacillus cereus PCM 1948,2019 (ATCC11778); experiment: MIC determination; format: cell-based; conditions: 37 °C, 48 h
Protocol: (§1) The MIC determinations for Staphylococcus epidermidis ATCC14990, Staphylococcus aureus ATCC6538, Enterococcus faecalis ATCC51299, Klebsiella pneumoniae ATCC13883, Escherichia coli ATCC8739, Salmonella enterica ATCC13076, Helicobacter pylori ATCC43504, Campylobacter jejuni ZMF, Campylobacter coli ZMF, Bacillus cereus PCM 1948,2019 (ATCC11778), and Listeria monocytogenes PCM2191 were performed based on the methodology described by Krauze-Baranowska et al.. The procedure for H. pylori was used in the experiments with Campylobacter strains, and the procedure for B. subtilis was used in the experiments with L. monocytogenes and B. cereus. The tested samples were dissolved in DMSO and diluted with water (concentration of approximately 500 μg/mL). The solutions were diluted geometrically by transferring the mixture/dilution (100 μL) from the first to the twelfth well of the microtiter plate. The final concentrations of samples used for antimicrobial effects ranged from 500 to 0.006 µg/mL. Ampicillin was used as a reference compound in the concentration range of 128 to 0.0625 µg/mL. The tests were incubated at 37 °C for 48 h. The diluent concentration had no effect on the activity of the tested compounds. All experiments were performed in triplicate.

[6] = system: Campylobacter coli ZMF; experiment: MIC determination; format: cell-based; conditions: 37 °C, 48 h
Protocol: as §1

[7] = system: Campylobacter jejuni ZMF; experiment: MIC determination; format: cell-based; conditions: 37 °C, 48 h
Protocol: as §1

[8] = system: Enterococcus faecalis ATCC51299; experiment: MIC determination; format: cell-based; conditions: 37 °C, 48 h
Protocol: as §1

[9] = system: Escherichia coli ATCC8739; experiment: MIC determination; format: cell-based; conditions: 37 °C, 48 h
Protocol: as §1

[10] = system: Helicobacter pylori ATCC43504; experiment: MIC determination; format: cell-based; conditions: 37 °C, 48 h
Protocol: as §1

[11] = system: Klebsiella pneumoniae ATCC13883; experiment: MIC determination; format: cell-based; conditions: 37 °C, 48 h
Protocol: as §1

[12] = system: Listeria monocytogenes PCM2191; experiment: MIC determination; format: cell-based; conditions: 37 °C, 48 h
Protocol: as §1

[13] = system: Salmonella enterica ATCC13076; experiment: MIC determination; format: cell-based; conditions: 37 °C, 48 h
Protocol: as §1

[14] = system: Staphylococcus aureus ATCC6538; experiment: MIC determination; format: cell-based; conditions: 37 °C, 48 h
Protocol: as §1

[15] = system: Staphylococcus epidermidis ATCC14990; experiment: MIC determination; format: cell-based; conditions: 37 °C, 48 h
Protocol: as §1

IC50 ([1]; Homo sapiens, HeLa, MTT, 24 h treatment): 5.67 ± 0.35 µg/mL (≈ 10.8 µM)
MIC [5]: > 500 µg/mL
MIC [6]: > 500 µg/mL
MIC [7]: > 500 µg/mL
MIC [8]: > 500 µg/mL
MIC [9]: > 500 µg/mL
MIC [10]: > 500 µg/mL
MIC [11]: > 500 µg/mL
MIC [12]: > 500 µg/mL
MIC [13]: > 500 µg/mL
MIC [14]: > 500 µg/mL
MIC [15]: > 500 µg/mL
SMILES: Cc1cc(S(=O)(=O)Nc2ccc(C(=O)/C=C/c3ccc(Br)cc3)cc2)c(Cl)cc1Cl [Compound 5, (E)-N-{4-[3-(4-Bromophenyl)acryloyl]phenyl}-2,4-Dichloro-5-Methylbenzenesulfonamide]
selectivity index HeLa ([1]; SI = IC50 noncancer cells/IC50 cancer cells, in relation to human neonatal fibroblasts): 4.51
caspase-9 relative activity ([2]; 1 µg/mL): 0.85 ± 0.03
caspase-9 relative activity ([2]; 5 µg/mL): 4.54 ± 0.20
caspase-9 relative activity ([2]; 7 µg/mL): 4.50 ± 0.14
caspase-9 relative activity ([2]; 10 µg/mL): 3.81 ± 0.32
% of DPPH radical inhibition [3]: 30.18 ± 0.23%
% of ABTS radical inhibition [4]: 16.01 ± 0.69%
